# Test results: ChEMBL document CHEMBL1201862, “PubChem BioAssay data set” (2004)
# Activity calls are given as the source filed them. Rule as the data show it: actives have a measured IC50 and inactives only a lower limit.
# Assays:
# Format in all cases: functional
# [1] = target: T1, Sentrin-specific protease 8 (Homo sapiens, UniProt Q96LD8);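 also: luminescence read-out of SENP8 inhibition, dose-response confirmation following an ultra-high-throughput screen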
# T1 sequence (Q96LD8 whole entry): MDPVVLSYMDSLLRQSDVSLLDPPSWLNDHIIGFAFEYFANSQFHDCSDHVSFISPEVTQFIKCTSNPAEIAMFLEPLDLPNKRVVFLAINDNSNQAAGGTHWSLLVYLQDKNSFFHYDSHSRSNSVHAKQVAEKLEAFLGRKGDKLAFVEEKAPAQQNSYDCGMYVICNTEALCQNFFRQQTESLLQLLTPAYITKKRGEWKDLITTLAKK
# [2] = target: T2, Apoptotic protease-activating factor 1 (Homo sapiens, UniProt O14727)
# T2 sequence (O14727 whole entry): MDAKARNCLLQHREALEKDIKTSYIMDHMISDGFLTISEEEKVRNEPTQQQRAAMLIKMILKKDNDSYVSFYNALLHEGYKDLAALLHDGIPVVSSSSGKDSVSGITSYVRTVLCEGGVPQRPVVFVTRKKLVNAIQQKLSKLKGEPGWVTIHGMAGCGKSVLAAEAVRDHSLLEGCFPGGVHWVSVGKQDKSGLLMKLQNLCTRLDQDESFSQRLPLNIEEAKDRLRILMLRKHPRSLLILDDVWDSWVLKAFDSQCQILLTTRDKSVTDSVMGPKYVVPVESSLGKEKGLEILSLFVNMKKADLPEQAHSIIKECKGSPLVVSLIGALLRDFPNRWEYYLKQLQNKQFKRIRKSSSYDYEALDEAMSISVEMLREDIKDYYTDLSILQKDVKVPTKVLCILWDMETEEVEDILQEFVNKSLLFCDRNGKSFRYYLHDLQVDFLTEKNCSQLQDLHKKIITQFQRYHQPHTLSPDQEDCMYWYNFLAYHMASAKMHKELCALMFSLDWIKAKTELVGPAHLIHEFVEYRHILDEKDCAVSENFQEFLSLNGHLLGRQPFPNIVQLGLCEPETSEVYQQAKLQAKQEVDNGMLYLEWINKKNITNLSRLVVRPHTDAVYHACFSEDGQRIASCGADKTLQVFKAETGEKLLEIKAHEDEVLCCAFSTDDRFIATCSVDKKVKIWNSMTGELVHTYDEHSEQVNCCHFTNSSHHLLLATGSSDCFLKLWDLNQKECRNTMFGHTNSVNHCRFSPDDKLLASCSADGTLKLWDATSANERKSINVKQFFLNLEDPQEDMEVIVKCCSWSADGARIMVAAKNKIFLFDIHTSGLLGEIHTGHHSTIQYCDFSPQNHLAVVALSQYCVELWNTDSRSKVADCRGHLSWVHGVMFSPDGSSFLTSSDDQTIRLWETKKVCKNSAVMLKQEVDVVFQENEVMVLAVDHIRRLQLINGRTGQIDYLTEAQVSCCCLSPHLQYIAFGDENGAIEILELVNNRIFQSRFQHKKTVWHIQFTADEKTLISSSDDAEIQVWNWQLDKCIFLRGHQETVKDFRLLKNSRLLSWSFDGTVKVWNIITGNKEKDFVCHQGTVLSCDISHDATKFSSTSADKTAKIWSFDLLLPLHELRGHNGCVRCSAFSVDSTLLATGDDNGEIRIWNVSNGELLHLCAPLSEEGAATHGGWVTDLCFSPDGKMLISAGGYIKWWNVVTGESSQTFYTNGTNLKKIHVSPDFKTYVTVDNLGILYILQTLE
# Caspase-3 = target: T3, Caspase-3 (Homo sapiens, UniProt P42574); assay: SAR Analysis of small molecule inhibitors of Sentrin-specific proteases (SENPs) using a Caspase-3 Selectivity assay. [Related pubchem assays (depositor defined):AID2540, AID2599, AID434973, AID489001]
# T3 sequence (P42574 whole entry): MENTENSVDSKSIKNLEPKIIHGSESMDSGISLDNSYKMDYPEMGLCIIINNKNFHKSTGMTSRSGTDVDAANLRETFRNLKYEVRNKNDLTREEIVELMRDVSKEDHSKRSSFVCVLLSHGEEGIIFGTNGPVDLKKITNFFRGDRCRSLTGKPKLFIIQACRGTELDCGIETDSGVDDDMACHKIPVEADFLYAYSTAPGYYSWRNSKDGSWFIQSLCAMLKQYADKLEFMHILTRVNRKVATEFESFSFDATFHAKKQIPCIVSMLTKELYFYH
# [3] = target: T4, Sentrin-specific protease 7 (Homo sapiens, UniProt Q9BQF6); assay: inhibition of human SENP7 cleavage activity – biochemical, luminescence, SAR follow-up (AID 504497)
# T4 sequence (Q9BQF6 whole entry): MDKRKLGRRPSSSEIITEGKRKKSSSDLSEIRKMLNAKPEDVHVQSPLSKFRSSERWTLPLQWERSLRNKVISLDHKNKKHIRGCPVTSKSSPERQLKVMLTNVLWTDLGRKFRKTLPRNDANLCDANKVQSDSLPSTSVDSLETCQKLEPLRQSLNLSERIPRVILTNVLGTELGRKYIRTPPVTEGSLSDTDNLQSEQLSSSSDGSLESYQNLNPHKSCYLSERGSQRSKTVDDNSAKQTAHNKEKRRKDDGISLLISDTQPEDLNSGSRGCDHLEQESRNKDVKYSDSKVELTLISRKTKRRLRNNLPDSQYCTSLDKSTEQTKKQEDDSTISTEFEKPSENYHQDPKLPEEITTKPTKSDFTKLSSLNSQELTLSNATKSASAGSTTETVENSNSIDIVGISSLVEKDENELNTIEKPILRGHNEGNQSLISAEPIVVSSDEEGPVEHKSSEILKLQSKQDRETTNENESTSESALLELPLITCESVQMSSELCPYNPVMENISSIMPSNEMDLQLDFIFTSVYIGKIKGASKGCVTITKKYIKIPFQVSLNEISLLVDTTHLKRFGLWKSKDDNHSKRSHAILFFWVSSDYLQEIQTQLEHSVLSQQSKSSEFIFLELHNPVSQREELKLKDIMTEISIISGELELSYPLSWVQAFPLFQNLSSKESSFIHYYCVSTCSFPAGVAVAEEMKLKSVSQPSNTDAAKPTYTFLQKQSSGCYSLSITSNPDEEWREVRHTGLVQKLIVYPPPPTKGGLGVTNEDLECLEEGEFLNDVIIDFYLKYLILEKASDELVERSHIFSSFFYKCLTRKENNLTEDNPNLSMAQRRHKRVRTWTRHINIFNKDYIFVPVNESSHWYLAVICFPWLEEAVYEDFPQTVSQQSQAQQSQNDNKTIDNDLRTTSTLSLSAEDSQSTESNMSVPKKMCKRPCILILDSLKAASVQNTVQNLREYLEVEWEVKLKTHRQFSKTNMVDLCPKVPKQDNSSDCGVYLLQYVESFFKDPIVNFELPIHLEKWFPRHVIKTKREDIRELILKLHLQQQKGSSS
compound,measurement,setting,value
O=C(NN=c1c(=O)c2ccccc2c1=O)c1ccccc1,IC50,[1],> 100 µM (inactive)
same,IC50,[2],1.66 µM (active)
same,IC50,Caspase-3,51.8 µM (active)
same,IC50,[3],12 µM (active)
